Laboratory results from ChEMBL document CHEMBL1158289, “Bioactive amides from Glycosmis species” (J Nat Prod, 1996).
In brackets after ≈: the same amount, converted by molar mass.

Legend:
Cladosporium herbarum = experiment: Antifungal activity against Cladosporium herbarum assessed as inhibition of spore germination after 36 hrs by germtube inhibition test; type: functional; conditions: read-out: ED50 (the source's name)
Spodoptera littoralis [1] = experiment: Contact toxicity in Spodoptera littoralis neonatal larvae assessed as mortality after 48 hrs; type: organism-based; conditions: in vivo
Spodoptera littoralis [2] = experiment: Toxicity in Spodoptera littoralis neonatal larvae assessed as growth inhibition after 5 days; type: organism-based
Spodoptera littoralis [3] = experiment: Toxicity in Spodoptera littoralis neonatal larvae assessed as survival rate after 5 days; type: organism-based; conditions: in vivo, 120 h

Question: For `CSC(=O)N(C)C(=O)Cc1ccccc1` [RITIGALIN], which EC50 (Cladosporium herbarum) is on record?
Answer: The EC50 was 156 µg/mL (≈ 699 µM).

Question: What about the LC50 (Spodoptera littoralis [1]) of the same compound?
Answer: Its LC50 is 0.05 umol/dm'2.

Question: What about the EC50 (Spodoptera littoralis [2]) of the same compound?
Answer: Its EC50 is 0.43 µmol/g.

Question: And the LC50 (Spodoptera littoralis [3])?
Answer: Its LC50 is 1.34 µmol/g.

Question: Which results are given for `CSC(=O)N(C)/C=C/c1ccccc1` [DEHYDRONIRANIN A]?
Answer: EC50 (Cladosporium herbarum): 100 µg/mL (≈ 482 µM); LC50 (Spodoptera littoralis [1]): 0.18 umol/dm'2; EC50 (Spodoptera littoralis [2]): 0.41 µmol/g; LC50 (Spodoptera littoralis [3]): 1.64 µmol/g

Question: How did the EC50 (Cladosporium herbarum) turn out when `CSC(=O)N(C)/C=C\c1ccccc1` [DEHYDRONIRANIN B] was run?
Answer: The EC50 was 8.4 µg/mL (≈ 40.5 µM).

Question: And the LC50 (Spodoptera littoralis [1])?
Answer: Its LC50 is 0.02 umol/dm'2.

Question: What about the EC50 (Spodoptera littoralis [2]) of the same compound?
Answer: Its EC50 is 0.37 µmol/g.

Question: What about the LC50 (Spodoptera littoralis [3]) of the same compound?
Answer: Its LC50 is 0.96 µmol/g.

Question: How did the EC50 (Cladosporium herbarum) turn out when `CS/C=C/C(=O)N(C)/C=C/c1ccccc1` [METHYLILLUKUMBIN A] was run?
Answer: Its EC50 is 5.5 µg/mL (≈ 23.6 µM).

Question: What about the LC50 (Spodoptera littoralis [1]) of the same compound?
Answer: The LC50 was greater than 6.5 umol/dm'2.

Question: What about the EC50 (Spodoptera littoralis [2]) of the same compound?
Answer: Its EC50 is 0.94 µmol/g.

Question: And the LC50 (Spodoptera littoralis [3])?
Answer: Its LC50 is greater than 5 µmol/g.

Question: Which results are given for `CS/C=C/C(=O)N(C)CCc1ccccc1`?
Answer: EC50 (Cladosporium herbarum): 17.6 µg/mL (≈ 74.8 µM); LC50 (Spodoptera littoralis [1]): 0.03 umol/dm'2; EC50 (Spodoptera littoralis [2]): 0.47 µmol/g; LC50 (Spodoptera littoralis [3]): 4.24 µmol/g

Question: For `CSC(=O)N(C)CCc1ccccc1` [NIRANIN], which EC50 (Cladosporium herbarum) is on record?
Answer: The EC50 was 28 µg/mL (≈ 134 µM).

Question: What about the LC50 (Spodoptera littoralis [1]) of the same compound?
Answer: Its LC50 is 0.03 umol/dm'2.

Question: And the EC50 (Spodoptera littoralis [2])?
Answer: Its EC50 is 0.25 µmol/g.

Question: And the LC50 (Spodoptera littoralis [3])?
Answer: Its LC50 is 0.81 µmol/g.

Question: With `CNC(=O)/C=C/SC` [PENANGIN] as the compound, how does the EC50 (Cladosporium herbarum) read?
Answer: Its EC50 is greater than 200 µg/mL.

Question: And the LC50 (Spodoptera littoralis [1])?
Answer: The LC50 was 2.84 umol/dm'2.

Question: What about the EC50 (Spodoptera littoralis [2]) of the same compound?
Answer: The EC50 was 0.84 µmol/g.

Question: What about the LC50 (Spodoptera littoralis [3]) of the same compound?
Answer: The LC50 was greater than 10 µmol/g.
